Here are results for 1 substance from US10568933B2, “Beta-casein A2 and blood glucose levels” (THE A2 MILK COMPANY LIMITED, priority 2013, dated 2020).

This test deals with SH-SY5Y cells. The test is described as follows: Effect of BCM-7 on DNA methylation levels (MBD-seq). Format: cell-based, human. Particulars: 1 μM, 4 hours. On the procedure: Shifts in global DNA methylation patterns induced by BCM-7 were investigated using methyl-CpG binding domain (MBD) protein-enriched genome sequencing (MBD-seq) as described previously (Trivedi M., et al., Mol. Pharm. 2014), whereas mRNA translation microarray data was obtained using an Agilent V3 microarray chip, from non-treated control SH-SY5Y cells and cells treated for 4 hours with 1 μM BCM-7.
Genomic DNA was extracted from samples using the Easy DNA kit (Invitrogen K1800-01) using the appropriate protocol for cell lines. Fragmentation was performed on a Covaris S2 ultrasonicator using the following settings: duty cycle 10%, intensity 5, 200 cycles per burst during 200 sec. Fragments were obtained having an average length of 200 bp. The power mode is frequency sweeping, temperature 6-8° C., water level 12. […] DNA with an input from […] was analysed on the Agilent 2100 using a DNA 1000 chip. […] The concentrations of fragmented and captured DNA were determined on a Fluostar Optima plate reader with the Quant-iT PicoGreen dsDNA Assay Kit (Invitrogen P7589) at 480/520 nm. […]
The Illumina library amplification index protocol was used with the following alterations: 22 μl DNA was used and performed 21 cycles run. […] 1 μl was applied to an Agilent 2100 HS DNA chip and the concentration was determined by smear analysis on the Agilent 2100. […]

For the substance beta-casomorphin-7 [BCM-7], the “Epigenetic status (DNA methylation) of genes responsible for glucose metabolism, synthesis and glucose homeostasis” value is on record as “altered”.
